Laboratory results as given in ChEMBL document CHEMBL1201862, “PubChem BioAssay data set” (2004).
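Where inhibition never reached the appropriate level, the endpoint shown equals the highest concentration tested. Otherwise, values were interpolated linearly from a five-concentration, 48-hour dose response in 96-well plates. At the GI50, growth is halved.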 Active and inactive are the calls of the source. Rule as the data show it: active = GI50 up to about 1.1 µM and inactive = higher.

Tests used:
Test in all cases: NCI-60 cell line screen, 48 h
NCI-H522 = system: NCI-H522
SK-MEL-5 = system: SK-MEL-5
UACC-257 = system: UACC-257
OVCAR-5 = system: OVCAR-5
A498 = system: A498
SK-MEL-2 = system: SK-MEL-2
M14 = system: M14
CCRF-CEM = system: CCRF-CEM
NCI-H226 = system: NCI-H226
IGROV-1 = system: IGROV-1
Hs-578T = system: Hs-578T
HOP-62 = system: HOP-62
HCT-15 = system: HCT-15
BT-549 = system: BT-549
RPMI-8226 = system: RPMI-8226
OVCAR-8 = system: OVCAR-8
PC-3 = system: PC-3
MDA-MB-231 = system: MDA-MB-231
MDA-MB-435 = system: MDA-MB-435
OVCAR-4 = system: OVCAR-4
SN12C = system: SN12C
HT-29 = system: HT-29
TK-10 = system: TK-10
CAKI-1 = system: CAKI-1
SF-268 = system: SF-268
MCF7 = system: MCF7
UO-31 = system: UO-31
UACC-62 = system: UACC-62
NCI-H23 = system: NCI-H23
EKVX = system: EKVX
ACHN = system: ACHN
HL-60 = system: HL-60
RXF 393 = system: RXF 393
SK-MEL-28 = system: SK-MEL-28
SNB-75 = system: SNB-75
SNB-19 = system: SNB-19
MDA-N = system: MDA-N
K562 = system: K562
OVCAR-3 = system: OVCAR-3
COLO 205 = system: COLO 205
SR = system: SR
MOLT-4 = system: MOLT-4
Malme-3M = system: Malme-3M
SF-539 = system: SF-539
DU-145 = system: DU-145
SW-620 = system: SW-620
NCI/ADR-RES = system: NCI/ADR-RES
KM12 = system: KM12
SF-295 = system: SF-295
HOP-92 = system: HOP-92
NCI-H460 = system: NCI-H460
U-251 = system: U-251
SK-OV-3 = system: SK-OV-3
HCC 2998 = system: HCC 2998

Nc1nc2c(c(-c3ccc(F)cc3)n1)COC/C2=C\c1ccc(F)cc1
GI50 (NCI-H522): 10.8 µM (inactive) | GI50 (SK-MEL-5): 56 µM (inactive) | GI50 (UACC-257): 45.6 µM (inactive) | GI50 (OVCAR-5): > 100 µM (inactive) | GI50 (A498): > 100 µM (inactive) | GI50 (SK-MEL-2): > 100 µM (inactive) | GI50 (M14): > 100 µM (inactive) | GI50 (CCRF-CEM): 52.5 µM (inactive) | GI50 (NCI-H226): 27.5 µM (inactive) | GI50 (IGROV-1): 40.6 µM (inactive) | GI50 (Hs-578T): 33.4 µM (inactive) | GI50 (HOP-62): 34.6 µM (inactive) | GI50 (HCT-15): > 100 µM | GI50 (BT-549): 43.5 µM (inactive) | GI50 (RPMI-8226): 71.6 µM (inactive) | GI50 (OVCAR-8): 58.2 µM (inactive) | GI50 (PC-3): 43.3 µM (inactive) | GI50 (MDA-MB-231): > 100 µM (inactive) | GI50 (MDA-MB-435): 41.2 µM (inactive) | GI50 (OVCAR-4): > 100 µM (inactive) | GI50 (SN12C): > 100 µM (inactive) | GI50 (HT-29): 15.8 µM (inactive) | GI50 (TK-10): 30.1 µM (inactive) | GI50 (CAKI-1): > 100 µM (inactive) | GI50 (SF-268): 14.5 µM (inactive) | GI50 (MCF7): 28.1 µM (inactive) | GI50 (UO-31): 14.7 µM (inactive) | GI50 (UACC-62): 79.4 µM (inactive) | GI50 (NCI-H23): 45.6 µM (inactive) | GI50 (EKVX): 18.6 µM (inactive) | GI50 (ACHN): 55.6 µM (inactive) | GI50 (HL-60): 39.1 µM (inactive) | GI50 (RXF 393): 52.7 µM (inactive) | GI50 (SK-MEL-28): > 100 µM (inactive) | GI50 (SNB-75): 20.5 µM (inactive) | GI50 (SNB-19): 24.8 µM (inactive) | GI50 (MDA-N): > 100 µM (inactive) | GI50 (K562): 35.6 µM (inactive) | GI50 (OVCAR-3): 51.4 µM (inactive) | GI50 (COLO 205): > 100 µM (inactive) | GI50 (SR): 17 µM (inactive) | GI50 (MOLT-4): 51.2 µM (inactive) | GI50 (Malme-3M): 12.7 µM (inactive) | GI50 (SF-539): > 100 µM (inactive) | GI50 (DU-145): > 100 µM (inactive) | GI50 (SW-620): > 100 µM (inactive) | GI50 (NCI/ADR-RES): 65.8 µM (inactive) | GI50 (KM12): 15.7 µM (inactive) | GI50 (SF-295): 35.5 µM (inactive) | GI50 (HOP-92): 30.4 µM (inactive) | GI50 (NCI-H460): 15.5 µM (inactive) | GI50 (U-251): 15.4 µM (inactive) | GI50 (SK-OV-3): > 100 µM (inactive) | GI50 (HCC 2998): 30.8 µM (inactive)
